In ChEMBL document CHEMBL5532749, “Synthesis and functional evaluation of proteinogenic amino acid-derived synthetic cannabinoid receptor agonists related to MPP-5F-PICA, MMB-5F-PICA, and MDMB-5F-PICA” (RSC Med Chem, 2024):

Key:
Format in all cases: functional, cell-based
Cannabinoid receptor 1 [1] = molecular target: T1, Cannabinoid receptor 1 (Homo sapiens, UniProt P21554); experiment: Agonist activity at human CB1 receptor stably transfected in AtT20 cells incubated for 60 mins by FLIPR membrane potential assay
Cannabinoid receptor 2 [2] = molecular target: T2, Cannabinoid receptor 2 (Homo sapiens, UniProt P34972); experiment: Agonist activity at human CB2 receptor stably transfected in AtT20 cells incubated for 60 mins by FLIPR membrane potential assay
Cannabinoid receptor 1 [3] = molecular target: T1, Cannabinoid receptor 1; experiment: Agonist activity at human CB1 receptor stably transfected in AtT20 cells assessed as maximal efficacy at 30 uM incubated for 60 mins by FLIPR membrane potential assay relative to control; details: filed as agonist
Cannabinoid receptor 2 [4] = molecular target: T2, Cannabinoid receptor 2; experiment: Agonist activity at human CB2 receptor stably transfected in AtT20 cells assessed as maximal efficacy at 30 uM incubated for 60 mins by FLIPR membrane potential assay relative to control; details: filed as agonist
Cannabinoid receptor 1 [5] = molecular target: T1, Cannabinoid receptor 1; experiment: Agonist activity at HA-tagged human CB1 receptor stably transfected in AtT20 cells incubated for 60 mins by FLIPR membrane potential assay
Cannabinoid receptor 2 [6] = molecular target: T2, Cannabinoid receptor 2; experiment: Agonist activity at HA-tagged human CB2 receptor stably transfected in AtT20 cells incubated for 60 mins by FLIPR membrane potential assay
Cannabinoid receptor 1 [7] = molecular target: T1, Cannabinoid receptor 1; experiment: Agonist activity at HA-tagged human CB1 receptor stably transfected in AtT20 cells assessed as maximal efficacy at 30 uM incubated for 60 mins by FLIPR membrane potential assay relative to control; details: filed as agonist
Cannabinoid receptor 2 [8] = molecular target: T2, Cannabinoid receptor 2; experiment: Agonist activity at HA-tagged human CB2 receptor stably transfected in AtT20 cells assessed as maximal efficacy at 30 uM incubated for 60 mins by FLIPR membrane potential assay relative to control; details: filed as agonist
Cannabinoid receptor 1 [9] = molecular target: T1, Cannabinoid receptor 1; experiment: Agonist activity at human CB1 receptor stably transfected in AtT20 cells assessed as maximal efficacy at 10 uM incubated for 60 mins by FLIPR membrane potential assay relative to control
Cannabinoid receptor 2 [10] = molecular target: T2, Cannabinoid receptor 2; experiment: Agonist activity at human CB2 receptor stably transfected in AtT20 cells assessed as maximal efficacy at 10 uM incubated for 60 mins by FLIPR membrane potential assay relative to control

T1 sequence (P21554 whole entry): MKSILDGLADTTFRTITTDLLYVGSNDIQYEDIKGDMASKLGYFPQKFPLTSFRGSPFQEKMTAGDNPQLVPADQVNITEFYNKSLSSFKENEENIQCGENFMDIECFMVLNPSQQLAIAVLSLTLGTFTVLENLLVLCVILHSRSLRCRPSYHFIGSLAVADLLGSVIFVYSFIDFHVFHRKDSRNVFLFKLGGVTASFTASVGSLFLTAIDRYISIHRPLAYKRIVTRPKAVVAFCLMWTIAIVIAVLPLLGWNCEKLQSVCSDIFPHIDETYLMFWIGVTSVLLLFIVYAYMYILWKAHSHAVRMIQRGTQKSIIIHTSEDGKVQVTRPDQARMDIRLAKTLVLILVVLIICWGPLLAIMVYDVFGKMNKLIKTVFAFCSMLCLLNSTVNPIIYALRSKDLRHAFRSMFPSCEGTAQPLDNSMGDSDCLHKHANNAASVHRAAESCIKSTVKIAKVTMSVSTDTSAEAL
T2 sequence (P34972 whole entry): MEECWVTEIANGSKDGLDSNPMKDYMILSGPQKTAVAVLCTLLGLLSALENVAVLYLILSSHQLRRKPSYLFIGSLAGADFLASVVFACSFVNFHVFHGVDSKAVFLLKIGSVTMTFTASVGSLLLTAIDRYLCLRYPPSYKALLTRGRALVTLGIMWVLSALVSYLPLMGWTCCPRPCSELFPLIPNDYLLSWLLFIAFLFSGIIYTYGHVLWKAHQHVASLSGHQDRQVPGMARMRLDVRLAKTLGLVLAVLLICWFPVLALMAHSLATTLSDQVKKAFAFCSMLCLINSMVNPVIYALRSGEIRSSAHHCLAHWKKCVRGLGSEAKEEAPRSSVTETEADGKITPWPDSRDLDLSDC

Row | SMILES | EC50 (Cannabinoid receptor 1 [1]; read-out: EC50) | EC50 (Cannabinoid receptor 2 [2]) | Emax (Cannabinoid receptor 1 [3]) | Emax (Cannabinoid receptor 2 [4]) | also measured
1 | COC(=O)[C@@H](CC(C)C)NC(=O)c1cn(CCCCCF)c2ccccc12 | 23.9 nM | 53.2 nM | 150% | 112% | 
2 | COC(=O)[C@@H](NC(=O)c1cn(CCCCCF)c2ccccc12)C(C)C |  |  |  |  | EC50 (Cannabinoid receptor 1 [5]): 2.4 nM; EC50 (Cannabinoid receptor 2 [6]): 4.6 nM; Emax (Cannabinoid receptor 1 [7]): 107%; Emax (Cannabinoid receptor 2 [8]): 94%
3 | COC(=O)[C@@H](Cc1c[nH]c2ccccc12)NC(=O)c1cn(CCCCCF)c2ccccc12 |  |  |  |  | Emax (Cannabinoid receptor 1 [9]): 9%; Emax (Cannabinoid receptor 2 [10]): 17%
4 | COC(=O)[C@@H](CO)NC(=O)c1cn(CCCCCF)c2ccccc12 |  |  |  |  | Emax (Cannabinoid receptor 1 [9]; filed as agonist): 66%; Emax (Cannabinoid receptor 2 [10]; filed as agonist): 46%
5 | COC(=O)[C@@H](CCC(N)=O)NC(=O)c1cn(CCCCCF)c2ccccc12 | 3630 nM | 445 nM | 116% | 76% | 
6 | COC(=O)[C@@H](C)NC(=O)c1cn(CCCCCF)c2ccccc12 |  | 478 nM | 71% | 72% | 
7 | COC(=O)[C@H](Cc1c[nH]c2ccccc12)NC(=O)c1cn(CCCCCF)c2ccccc12 |  |  |  |  | Emax (Cannabinoid receptor 1 [9]): 34%; Emax (Cannabinoid receptor 2 [10]): 37%
8 | COC(=O)[C@H](CCC(N)=O)NC(=O)c1cn(CCCCCF)c2ccccc12 |  | 199 nM |  | 90% | Emax (Cannabinoid receptor 1 [9]; filed as agonist): 94%
9 | COC(=O)[C@H](CC(C)C)NC(=O)c1cn(CCCCCF)c2ccccc12 | 25.5 nM | 7.16 nM | 136% | 99% | 
10 | COC(=O)[C@@H](CCCCN)NC(=O)c1cn(CCCCCF)c2ccccc12 |  | 1270 nM |  | 74% | Emax (Cannabinoid receptor 1 [9]; filed as agonist): 58%
11 | COC(=O)[C@H]1CCCN1C(=O)c1cn(CCCCCF)c2ccccc12 |  |  |  |  | Emax (Cannabinoid receptor 1 [9]): 33%; Emax (Cannabinoid receptor 2 [10]): 7%
12 | COC(=O)[C@H](NC(=O)c1cn(CCCCCF)c2ccccc12)[C@H](C)O | 2310 nM | 93.4 nM | 105% | 81% | 
13 | COC(=O)[C@@H]1CCCN1C(=O)c1cn(CCCCCF)c2ccccc12 | 20.7 nM | 13.4 nM | 106% | 86% | 
14 | COC(=O)[C@H](Cc1ccc(O)cc1)NC(=O)c1cn(CCCCCF)c2ccccc12 | 182 nM | 87.7 nM | 135% | 98% | 
15 | COC(=O)[C@@H](NC(=O)c1cn(CCCCCF)c2ccccc12)[C@@H](C)O | 49 nM | 148 nM | 134% | 60% | 
16 | COC(=O)[C@@H](Cc1ccccc1)NC(=O)c1cn(CCCCCF)c2ccccc12 | 441 nM | 586 nM | 107% | 57% | 
17 | COC(=O)[C@@H](Cc1ccc(O)cc1)NC(=O)c1cn(CCCCCF)c2ccccc12 |  |  |  |  | Emax (Cannabinoid receptor 1 [9]; filed as agonist): 57%; Emax (Cannabinoid receptor 2 [10]; filed as agonist): 40%
18 | COC(=O)[C@@H](NC(=O)c1cn(CCCCCF)c2ccccc12)C(C)(C)C |  |  |  |  | EC50 (Cannabinoid receptor 1 [5]): 0.45 nM; EC50 (Cannabinoid receptor 2 [6]): 7.4 nM; Emax (Cannabinoid receptor 1 [7]): 110%; Emax (Cannabinoid receptor 2 [8]): 94%
19 | COC(=O)[C@H](NC(=O)c1cn(CCCCCF)c2ccccc12)C(C)C | 104 nM | 16.2 nM | 130% | 107% | 
20 | COC(=O)[C@H](Cc1ccccc1)NC(=O)c1cn(CCCCCF)c2ccccc12 | 4.63 nM | 7.41 nM | 108% | 99% | EC50 (Cannabinoid receptor 1 [1]; read-out: pEC50 (converted)): 4.57 nM
21 | COC(=O)[C@H](CCCCN)NC(=O)c1cn(CCCCCF)c2ccccc12 |  |  |  |  | Emax (Cannabinoid receptor 1 [9]): 12%; Emax (Cannabinoid receptor 2 [10]): 4%
22 | COC(=O)[C@H](NC(=O)c1cn(CCCCCF)c2ccccc12)C(C)(C)C | 16.4 nM | 56.5 nM | 129% | 96% | 
23 | COC(=O)CNC(=O)c1cn(CCCCCF)c2ccccc12 |  |  |  |  | Emax (Cannabinoid receptor 1 [9]; filed as agonist): 40%; Emax (Cannabinoid receptor 2 [10]): 12%
24 | CC[C@H](C)[C@H](NC(=O)c1cn(CCCCCF)c2ccccc12)C(=O)OC | 27.6 nM | 19.2 nM | 145% | 124% | 
25 | COC(=O)[C@@H](CCSC)NC(=O)c1cn(CCCCCF)c2ccccc12 | 206 nM | 95 nM | 139% | 90% | 
26 | COC(=O)[C@H](C)NC(=O)c1cn(CCCCCF)c2ccccc12 | 78.8 nM | 59.5 nM | 108% | 86% | 
27 | COC(=O)[C@H](CCSC)NC(=O)c1cn(CCCCCF)c2ccccc12 | 358 nM | 59.6 nM | 151% | 81% | 
28 | COC(=O)[C@H](CO)NC(=O)c1cn(CCCCCF)c2ccccc12 | 200 nM | 625 nM | 123% | 41% | 
29 | CC[C@@H](C)[C@@H](NC(=O)c1cn(CCCCCF)c2ccccc12)C(=O)OC | 33.5 nM | 26.8 nM | 121% | 107% | 
